Results as given in PMC9887599, “Synthesis, Optical Properties, and Antiproliferative Evaluation of NBD-Triterpene Fluorescent Probes” (Journal of Natural Products, 2022).

Tests used:
B16-F10 murine melanoma = assay: MTT cell-viability assay, B16-F10; type: cell-based; conditions: Mus musculus, 72 h, untreated control cells as 100% viability
Protocol: (§1) The cytotoxic effects of 12 NBD-Aa-triterpene conjugates (1–12) were tested on three different cancer cell lines as a representation of cancers from different tissues and organs (B16-F10 murine melanoma, HT-29 human colon adenocarcinoma, and HepG2 human hepatocyte carcinoma). Cell viability was determined by MTT colorimetric analysis, with increasing concentration levels of each compound (0–200 μg/mL) and incubation for 72 h. The MTT assay was based on the metabolic reduction of 3-(4,5-dimethylthiazol-2-yl)-2,5-diphenyltetrazolium bromide (MTT) to a violet-colored compound (formazan), with a maximum absorbance at 570 nm. Cell viability was proportional to the amount of formazan and was expressed as the percentage of viable treated cells relative to untreated control cells. The concentration at which the derivatives halved the number of viable cells in the three cancer lines (IC50) was determined. […] These NBD conjugates of BO or BM also had higher IC50 values than their precursors (BO or BM), even in NBD conjugates with the shortest-chain ω-amino acid linker (6AHA) (Table 2). Due to these high IC50 values, all of these NBD-conjugated compounds were discarded for further cytometric studies.
(§2) The effect of the synthesized compounds on the viability of tumor cells was assessed using the MTT assay, based on the ability of living cells to metabolically reduce 3-(4,5-dimethylthiazole)-2,5-diphenyltetrazole bromide, rendering formazan, a colored compound with a maximum absorbance of 570 nm. To study the cytotoxic effects of the compounds in the three cancer cell lines, the different lines were seeded in 96-well plates at a cell density per well of 5 × 10^3 for B16-F10, 6 × 10^3 for HT-29, and 15 × 10^3 for HepG2. After seeding, the plates were grown for 24 h and subsequently treated in triplicate with different compounds at different concentrations (0–200 μg/mL) for 72 h. After this time, the cells were stained by adding […] of MTT (0.5 mg/mL) per well and incubated for 1 h. Subsequently, the cells were washed with phosphate-buffered saline (PBS), and formazan was resuspended in 100 μL of DMSO per well. Cell viability was measured by absorbance at 550 nm in an ELISA plate reader (Tecan Sunrise MR20–301, TECAN, Austria).
(§3) For this, Sigmaplot 12.5 software was used, and all quantitative data were expressed as means ± standard deviation (SD). All data shown are representative of at least two independent experiments performed in triplicate.

[1] = test system: HT-29 human colon adenocarcinoma; assay: MTT cell-viability assay, HT-29; type: cell-based; conditions: 72 h, untreated control cells as 100% viability
Protocol: as §1, §2, §3

[2] = test system: HepG2 human hepatocyte carcinoma; assay: MTT cell-viability assay, HepG2; type: cell-based; conditions: 72 h, untreated control cells as 100% viability
Protocol: as §1, §2, §3

[3] = test system: B16-F10, HT-29, and HepG2; assay: MTT cell-viability assay, summary over the three cancer cell lines; type: cell-based, mouse, human; conditions: 72 h, stated as holding in most cases, read-out: IC50 concentrations over the three cancer cell lines, in most cases
Protocol: as §1, §2, §3

[4] = Absorption and fluorescence spectroscopy (photophysical data); type: physicochemical; conditions: DMSO, 25 °C; for τ (half-life time of fluorescence): 485 nm pulsed LED; for Φ (fluorescence quantum yield): Coumarin 6 as standard; for (λem)max: excitation at 480 nm

Row | SMILES | IC50 (B16-F10 murine melanoma) [µM] | IC50 [1] [µM] | IC50 [2] [µM] | IC50 [3] [µM] | (λabs)max [4] [nm] | ε (molar extinction coefficient) [4] [M^–1 cm^–1] | τ (half-life time of fluorescence) [4] [ns] | Φ (fluorescence quantum yield) [4] | (λem)max [4] [nm]
1 | CC1(C)CC[C@]2(C(=O)OCc3ccccc3)CC[C@]3(C)C(=CC[C@@H]4[C@@]5(C)C[C@@H](O)[C@H](O)C(C)(C)[C@@H]5CC[C@]43C)[C@@H]2C1 [BM, 28-benzyl maslinate, reference compound] | 19 ± 0.2 | 15.3 ± 0.5 | 17 |  |  |  |  |  | 
2 | CC1(C)CC[C@]2(C(=O)OCc3ccccc3)CC[C@]3(C)C(=CC[C@@H]4[C@@]5(C)CC[C@H](O)C(C)(C)[C@@H]5CC[C@]43C)[C@@H]2C1 [BO, 28-benzyl oleanolate, reference compound] | 52.2 ± 0.9 | 67.1 ± 3.2 | 38.7 ± 1.7 |  |  |  |  |  | 
3 | CC1(C)CC[C@]2(C(=O)OCc3ccccc3)CC[C@]3(C)C(=CC[C@@H]4[C@@]5(C)CC[C@H](OC(=O)CCCCCNc6ccc([N+](=O)[O-])c7nonc67)C(C)(C)[C@@H]5CC[C@]43C)[C@@H]2C1 [Compound 3, Benzyl 3β-((6-((7-Nitrobenzo[C][1,2,5]oxadiazol-4-yl)amino)hexanoyl)oxy)olean-12-en-28-oate] | 76.6 ± 3.7 | 63.3 ± 2.4 | 74.3 ± 0.7 | > 80 | 480 | 4035 | 7.761 | 0.67 | 545
4 | CC1(C)CC[C@]2(C(=O)OCc3ccccc3)CC[C@]3(C)C(=CC[C@@H]4[C@@]5(C)C[C@@H](OC(=O)CCCCCNc6ccc([N+](=O)[O-])c7nonc67)[C@H](O)C(C)(C)[C@@H]5CC[C@]43C)[C@@H]2C1 [Compound 4, Benzyl 3β-Hydroxy-2α-((6-((7-nitrobenzo[c][1,2,5]oxadiazol-4-yl)amino)hexanoyl)oxy)olean-12-en-28-oate] | 96.4 ± 0.9 | 121 ± 4 | 91.2 ± 2.3 | > 80 | 480 | 1338 | 7.650 | 0.72 | 545
5 | CC1(C)CC[C@]2(C(=O)O)CC[C@]3(C)C(=CC[C@@H]4[C@@]5(C)CC[C@H](OC(=O)CCCCCCCNc6ccc([N+](=O)[O-])c7nonc67)C(C)(C)[C@@H]5CC[C@]43C)[C@@H]2C1 [Compound 5, 3β-((8-((7-Nitrobenzo[c][1,2,5]oxadiazol-4-yl)amino)octanoyl)oxy)olean-12-en-28-oic Acid] | 137 ± 2 | 105 ± 1.2 | 95.7 ± 3.4 | > 50 | 480 | 1144 | 7.654 | 0.73 | 545
6 | CC1(C)CC[C@]2(C(=O)O)CC[C@]3(C)C(=CC[C@@H]4[C@@]5(C)C[C@@H](OC(=O)CCCCCCCNc6ccc([N+](=O)[O-])c7nonc67)[C@H](O)C(C)(C)[C@@H]5CC[C@]43C)[C@@H]2C1 [Compound 6, 3β-Hydroxy-2α-((8-((7-nitrobenzo[c][1,2,5]oxadiazol-4-yl)amino)octanoyl)oxy)olean-12-en-28-oic Acid] | 39.5 ± 0.8 | 45.2 ± 0.9 | 98.5 ± 0.8 | > 50 | 481 | 1986 | 7.621 | 0.55 | 546
7 | CC1(C)CC[C@]2(C(=O)OCc3ccccc3)CC[C@]3(C)C(=CC[C@@H]4[C@@]5(C)CC[C@H](OC(=O)CCCCCCCNc6ccc([N+](=O)[O-])c7nonc67)C(C)(C)[C@@H]5CC[C@]43C)[C@@H]2C1 [Compound 7, Benzyl 3β-((8-((7-Nitrobenzo[c][1,2,5]oxadiazol-4-yl)amino)octanoyl)oxy)olean-12-en-28-oate] | 74.2 ± 2.2 | 95.9 ± 2.2 | 71.6 ± 1.7 | > 80 | 480 | 2645 | 7.724 | 0.71 | 547
8 | CC1(C)CC[C@]2(C(=O)OCc3ccccc3)CC[C@]3(C)C(=CC[C@@H]4[C@@]5(C)C[C@@H](OC(=O)CCCCCCCNc6ccc([N+](=O)[O-])c7nonc67)[C@H](O)C(C)(C)[C@@H]5CC[C@]43C)[C@@H]2C1 [Compound 8, Benzyl 3β-Hydroxy-2α-((8-((7-nitrobenzo[c][1,2,5]oxadiazol-4-yl)amino)octanoyl)oxy)olean-12-en-28-oate] | 96.8 ± 1.8 | 123 ± 1.7 | 95.3 ± 0.7 | > 80 | 481 | 3358 | 7.639 | 0.59 | 548
9 | CC1(C)CC[C@]2(C(=O)O)CC[C@]3(C)C(=CC[C@@H]4[C@@]5(C)CC[C@H](OC(=O)CCCCCCCCCCNc6ccc([N+](=O)[O-])c7nonc67)C(C)(C)[C@@H]5CC[C@]43C)[C@@H]2C1 [Compound 9, 3β-((11-((7-Nitrobenzo[c][1,2,5]oxadiazol-4-yl)amino)undecanoyl)oxy)olean-12-en-28-oic Acid] | 101.1 ± 0.9 | 113 ± 4.4 | 84.5 ± 0.4 | > 50 | 481 | 1015 | 7.635 | 0.71 | 546
10 | CC1(C)CC[C@]2(C(=O)O)CC[C@]3(C)C(=CC[C@@H]4[C@@]5(C)C[C@@H](OC(=O)CCCCCCCCCCNc6ccc([N+](=O)[O-])c7nonc67)[C@H](O)C(C)(C)[C@@H]5CC[C@]43C)[C@@H]2C1 [Compound 10, 3β-Hydroxy-2α-((11-((7-nitrobenzo[c][1,2,5]oxadiazol-4-yl)amino)undecanoyl)oxy)olean-12-en-28-oic Acid] | 107.7 ± 0.4 | 110 ± 5.2 | 122.8 ± 0.9 | > 50 | 481 | 1199 | 7.153 | 0.45 | 546
11 | CC1(C)CC[C@]2(C(=O)OCc3ccccc3)CC[C@]3(C)C(=CC[C@@H]4[C@@]5(C)CC[C@H](OC(=O)CCCCCCCCCCNc6ccc([N+](=O)[O-])c7nonc67)C(C)(C)[C@@H]5CC[C@]43C)[C@@H]2C1 [Compound 11] | 92.3 ± 1.5 | 101 ± 1.1 | 82.7 ± 2.5 | > 80 | 480 | 2718 | 7.645 | 0.49 | 546
12 | CC1(C)CC[C@]2(C(=O)O)CC[C@]3(C)C(=CC[C@@H]4[C@@]5(C)C[C@@H](O)[C@H](O)C(C)(C)[C@@H]5CC[C@]43C)[C@@H]2C1 [MA, 2α,3β-dihydroxyolean-12-en-28-oic acid, reference compound] | 36.2 ± 2.5 | 32.2 ± 3.8 | 99.2 ± 5.5 |  |  |  |  |  | 
13 | CC1(C)CC[C@]2(C(=O)O)CC[C@]3(C)C(=CC[C@@H]4[C@@]5(C)CC[C@H](O)C(C)(C)[C@@H]5CC[C@]43C)[C@@H]2C1 [OA, 3β-hydroxyolean-12-en-28-oic acid, reference compound] | 106 ± 3.7 | 429.9 ± 0.7 | 211.8 ± 0.5 |  |  |  |  |  | 
